Patent publication US20260325533A1, “CDK INHIBITOR COMPOUNDS” (ALEKSIA THERAPEUTICS, INC., priority 2023, published 2026)
Like-named read-outs stand apart in the source and are kept apart here.

Key:
Assay type in all cases: biochemical
[1] = molecular target: CDK6/CCND1 (Homo sapiens, UniProt Q00534); assay: CDK6 homogeneous time-resolved fluorescence (HTRF) kinase assay; conditions: CDK6/CCND
Method in brief: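 Enzyme pre-incubated 20 min at 23 °C with compound, then reacted 60 min at 23 °C with 1 mM ATP and 50 nM ULight-4E-BP1 (Thr37/46) peptide; 1 nM enzyme, 1% DMSO. EDTA-stopped, Eu-anti-phospho antibody TR-FRET read (665 nm or 665/615 ratio); 11-point half-log titration from 10 μM gave IC50.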

[2] = molecular target: CDK4/CCND3 (Homo sapiens, UniProt P11802); assay: CDK4 homogeneous time-resolved fluorescence (HTRF) kinase assay; conditions: CDK4/CCND
Method in brief: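 CDK4/CCND3 at 1.5 nM was preincubated with compound for 20 min at 23 °C, then reacted for 60 min with 1 mM ATP and 50 nM ULight-4E-BP1 (Thr37/46) peptide. The reaction was stopped with EDTA, and phosphorylation was read by HTRF with a Eu-anti-phospho antibody. IC50 values came from 11-point half-log titrations, typically from 10 μM.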

[3] = molecular target: CDK1/CCNB1 (Homo sapiens, UniProt P06493); assay: CDK1 homogeneous time-resolved fluorescence (HTRF) kinase assay; conditions: CDK1/CCNB
Method in brief: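 0.5 nM CDK1/CCNB1 was preincubated 20 min at 23 °C with compound in HEPES pH-unspecified buffer (MgCl2, EGTA, DTT, Tween 20), then reacted 60 min with 1 mM ATP and 50 nM ULight-4E-BP1 (Thr37/46) peptide. EDTA-stopped reactions were detected with 2 nM Eu-anti-phospho antibody; IC50 from 11-point half-log titrations.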

[4] = molecular target: CDK2/CCNE1 (Homo sapiens, UniProt P24941); assay: CDK2 homogeneous time-resolved fluorescence (HTRF) kinase assay; conditions: CDK2/CCNE
Method in brief: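 CDK2/CCNE1 (3 nM) preincubated 20 min at 23 °C with compound, then reacted 60 min at 23 °C with 1 mM ATP and 50 nM ULight-4E-BP1 (Thr37/46) peptide. Stopped with EDTA, phospho-peptide detected by Eu-anti-phospho antibody (665 nm or 665/615 ratio). IC50 from 11-point half-log titrations typically starting at 10 μM.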

[5] = x = IC50 25-250 nM, read-out: CDK6/CCND IC50 (25-250 nM)
[6] = x = IC50 >250 nM, read-out: CDK6/CCND IC50 (>250 nM column)
[7] = x = IC50 25-250 nM, read-out: CDK4/CCND IC50 (25-250 nM)
[8] = x = IC50 25-250 nM, read-out: CDK1/CCNB IC50 (25-250 nM)
[9] = x = IC50 <25 nM, read-out: CDK2/CCNE IC50 (<25 nM)
[10] = x = IC50 >250 nM, read-out: CDK4/CCND IC50 (>250 nM column)
[11] = x = IC50 >250 nM, read-out: CDK1/CCNB IC50 (>250 nM column)
[12] = x = IC50 25-250 nM, read-out: CDK2/CCNE IC50 (25-250 nM)
[13] = 25-250 nM, 1 mM ATP, read-out: CDK6/CCND IC50, 25-250 nM
[14] = 25-250 nM, read-out: CDK4/CCND IC50, 25-250 nM
[15] = >250 nM, read-out: CDK1/CCNB IC50 >250 nM
[16] = <25 nM, read-out: CDK2/CCNE IC50, <25 nM
[17] = >250 nM, 1 mM ATP, read-out: CDK6/CCND IC50, >250 nM
[18] = >250 nM, read-out: CDK4/CCND IC50, >250 nM

Chain of CDK6/CCND1 (Q00534 whole entry): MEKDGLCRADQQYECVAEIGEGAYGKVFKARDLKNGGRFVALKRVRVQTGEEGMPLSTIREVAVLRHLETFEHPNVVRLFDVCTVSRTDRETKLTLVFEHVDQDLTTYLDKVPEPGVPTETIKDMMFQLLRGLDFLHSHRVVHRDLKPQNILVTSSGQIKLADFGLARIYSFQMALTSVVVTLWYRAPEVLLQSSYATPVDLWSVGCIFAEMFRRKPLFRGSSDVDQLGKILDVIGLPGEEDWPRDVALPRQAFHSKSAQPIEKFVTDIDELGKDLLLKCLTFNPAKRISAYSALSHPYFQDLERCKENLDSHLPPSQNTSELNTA
Chain of CDK6/CCND1 (P24385 whole entry partner): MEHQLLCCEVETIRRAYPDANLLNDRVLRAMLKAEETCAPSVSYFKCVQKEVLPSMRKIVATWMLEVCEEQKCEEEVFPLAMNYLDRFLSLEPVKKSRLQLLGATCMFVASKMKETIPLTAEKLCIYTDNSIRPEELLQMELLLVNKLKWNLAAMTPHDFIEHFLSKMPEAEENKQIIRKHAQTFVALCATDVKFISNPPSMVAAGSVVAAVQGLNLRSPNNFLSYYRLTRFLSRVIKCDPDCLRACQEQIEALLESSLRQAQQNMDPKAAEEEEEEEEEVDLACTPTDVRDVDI
Chain of CDK1/CCNB1 (P06493 whole entry): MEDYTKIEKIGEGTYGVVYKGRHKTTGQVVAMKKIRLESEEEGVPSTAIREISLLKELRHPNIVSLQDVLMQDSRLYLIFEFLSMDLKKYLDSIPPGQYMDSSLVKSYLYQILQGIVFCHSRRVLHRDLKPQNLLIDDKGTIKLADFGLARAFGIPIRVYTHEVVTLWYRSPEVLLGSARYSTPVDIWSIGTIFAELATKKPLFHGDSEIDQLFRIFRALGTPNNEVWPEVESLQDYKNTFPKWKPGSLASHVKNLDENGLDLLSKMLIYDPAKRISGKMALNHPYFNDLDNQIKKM
Chain of CDK1/CCNB1 (P14635 whole entry partner): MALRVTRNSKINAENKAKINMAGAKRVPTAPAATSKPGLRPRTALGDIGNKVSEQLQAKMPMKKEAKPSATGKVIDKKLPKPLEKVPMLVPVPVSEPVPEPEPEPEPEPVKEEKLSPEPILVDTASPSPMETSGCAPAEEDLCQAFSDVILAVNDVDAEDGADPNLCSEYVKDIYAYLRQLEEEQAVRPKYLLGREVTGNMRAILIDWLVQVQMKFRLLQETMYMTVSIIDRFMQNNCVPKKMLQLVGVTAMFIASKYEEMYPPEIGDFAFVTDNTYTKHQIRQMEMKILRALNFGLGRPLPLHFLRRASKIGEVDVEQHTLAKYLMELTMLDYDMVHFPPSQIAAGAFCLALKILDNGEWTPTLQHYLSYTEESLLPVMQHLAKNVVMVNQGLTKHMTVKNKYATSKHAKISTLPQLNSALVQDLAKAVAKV
Chain of CDK4/CCND3 (P11802 whole entry): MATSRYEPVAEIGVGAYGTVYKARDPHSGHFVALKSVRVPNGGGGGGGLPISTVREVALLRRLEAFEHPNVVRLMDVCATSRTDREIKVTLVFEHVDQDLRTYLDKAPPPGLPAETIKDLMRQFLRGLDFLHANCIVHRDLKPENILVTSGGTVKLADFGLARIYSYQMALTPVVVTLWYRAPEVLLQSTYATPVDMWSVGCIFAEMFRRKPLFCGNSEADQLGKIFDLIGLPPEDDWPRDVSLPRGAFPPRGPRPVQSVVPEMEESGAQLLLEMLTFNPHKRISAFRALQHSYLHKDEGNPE
Chain of CDK4/CCND3 (P30281 whole entry partner): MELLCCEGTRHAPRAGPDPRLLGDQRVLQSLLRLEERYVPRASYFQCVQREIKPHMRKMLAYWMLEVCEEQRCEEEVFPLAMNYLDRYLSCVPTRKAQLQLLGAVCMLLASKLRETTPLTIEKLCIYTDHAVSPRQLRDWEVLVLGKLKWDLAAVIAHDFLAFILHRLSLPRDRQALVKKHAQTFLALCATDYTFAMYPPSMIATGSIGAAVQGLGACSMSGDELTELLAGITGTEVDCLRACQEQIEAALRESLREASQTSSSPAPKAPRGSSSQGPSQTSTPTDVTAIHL

Question: What does the source list for CS(=N)(=O)c1ccc(Nc2cc3c(C#Cc4ccc5oc(=O)[nH]c5c4)nccc3cn2)cc1 (racemic) [Ex 491, 5-((7-((4-(S-methylsulfonimidoyl)phenyl)amino)-2,6-naphthyridin-1-yl)ethynyl)benzo[d]oxazol-2(3H)-one]?
Answer: IC50 [1, 5]: 25 to 250 nM; IC50 [1, 6]: > 250 nM; IC50 [2, 7]: 25 to 250 nM; IC50 [3, 8]: 25 to 250 nM; IC50 [4, 9]: < 25 nM

Question: Which results are given for CS(=N)(=O)c1ccc(Nc2cc3c(C#Cc4ccc(=O)[nH]n4)nccc3cn2)cc1 (racemic) [Ex 497, 6-((7-((4-(S-methylsulfonimidoyl)phenyl)amino)-2,6-naphthyridin-1-yl)ethynyl)pyridazin-3(2H)-one]?
Answer: IC50 [1, 6]: > 250 nM; IC50 [2, 10]: > 250 nM; IC50 [3, 11]: > 250 nM; IC50 [4, 9]: < 25 nM

Question: What does the source list for CS(=N)(=O)c1ccc(Nc2cc3c(C#Cc4ccc(C#N)cc4)nccc3cn2)cc1 (racemic) [Ex 526, 4-((7-((4-(S-methylsulfonimidoyl)phenyl)amino)-2,6-naphthyridin-1-yl)ethynyl)benzonitrile]?
Answer: IC50 [1, 6]: > 250 nM; IC50 [2, 10]: > 250 nM; IC50 [3, 11]: > 250 nM; IC50 [4, 12]: 25 to 250 nM

Question: With CC(CCO)N1CCc2cc(-c3nccc4cnc(Nc5ccc(S(C)(=O)=O)cc5)cc34)ccc2C1 (racemic) [Ex 619, 3-(6-(7-((4-(methylsulfonyl)phenyl)amino)-2,6-naphthyridin-1-yl)-3,4-dihydroisoquinolin-2(1H)-yl)butan-1-ol] as the compound, how does the IC50 [1, 5] read?
Answer: 25 to 250 nM

Question: And the IC50 [2, 10]?
Answer: > 250 nM

Question: What about the IC50 [3, 11] of the same compound?
Answer: > 250 nM

Question: And the IC50 [4, 9]?
Answer: < 25 nM

Question: How did the IC50 [1, 5] turn out when CC(O)CN1CCc2cc(-c3nccc4cnc(Nc5ccc(S(C)(=O)=O)cc5)cc34)ccc2C1 (racemic) [Ex 628, 1-(6-(7-((4-(methylsulfonyl)phenyl)amino)-2,6-naphthyridin-1-yl)-3,4-dihydroisoquinolin-2(1H)-yl)propan-2-ol] was run?
Answer: 25 to 250 nM

Question: And the IC50 [2, 7]?
Answer: 25 to 250 nM

Question: And the IC50 [3, 11]?
Answer: > 250 nM

Question: And the IC50 [4, 9]?
Answer: < 25 nM

Question: How did the IC50 [1, 6] turn out when Cn1cc(C2CCN(c3nccc4cnc(Nc5ccc(S(C)(=O)=O)cc5)cc34)C2)cn1 (racemic) [Ex 654, 5-(3-(1-methyl-1H-pyrazol-4-yl)pyrrolidin-1-yl)-N-(4-(methylsulfonyl)phenyl)-2,6-naphthyridin-3-amine] was run?
Answer: > 250 nM

Question: And the IC50 [2, 10]?
Answer: > 250 nM

Question: And the IC50 [3, 11]?
Answer: > 250 nM

Question: And the IC50 ([4]; x = IC50 >250 nM, read-out: CDK2/CCNE IC50 (>250 nM column))?
Answer: > 250 nM

Question: How did the IC50 [1, 5] turn out when Cc1c(-c2nccc3cnc(Nc4ccc(S(C)(=O)=O)cc4)cc23)ccc2c1cnn2CC(C)O (racemic) [Ex 672, 1-(4-methyl-5-(7-((4-(methylsulfonyl)phenyl)amino)-2,6-naphthyridin-1-yl)-1H-indazol-1-yl)propan-2-ol] was run?
Answer: 25 to 250 nM

Question: What about the IC50 [2, 7] of the same compound?
Answer: 25 to 250 nM

Question: And the IC50 [3, 8]?
Answer: 25 to 250 nM

Question: What about the IC50 [4, 9] of the same compound?
Answer: < 25 nM

Question: Cc1c(-c2nccc3cnc(Nc4ccc(S(C)(=O)=O)cc4)cc23)ccc2nn(CC(C)O)cc12 (racemic) [Ex 675, 1-(4-methyl-5-(7-((4-(methylsulfonyl)phenyl)amino)-2,6-naphthyridin-1-yl)-2H-indazol-2-yl)propan-2-ol] was tested. Which IC50 [1, 6] did it give?
Answer: > 250 nM

Question: What about the IC50 [2, 10] of the same compound?
Answer: > 250 nM

Question: What about the IC50 [3, 11] of the same compound?
Answer: > 250 nM

Question: And the IC50 [4, 12]?
Answer: 25 to 250 nM

Question: For Cc1c(-c2nccc3cnc(Nc4ccc(S(=O)(=O)NC5CCCN(CCO)C5)cc4)cc23)ccc2c1cnn2CC(C)(C)O (racemic) [Ex 760, 4-((5-(1-(2-hydroxy-2-methylpropyl)-4-methyl-1H-indazol-5-yl)-2,6-naphthyridin-3-yl)amino)-N-(1-(2-hydroxyethyl)piperidin-3-yl)benzenesulfonamide], which IC50 [1, 13] is on record?
Answer: 25 to 250 nM

Question: And the IC50 [2, 14]?
Answer: 25 to 250 nM

Question: What about the IC50 [3, 15] of the same compound?
Answer: > 250 nM

Question: What about the IC50 [4, 16] of the same compound?
Answer: < 25 nM

Question: Cc1c(-c2nccc3cnc(Nc4ccc(S(=O)(=O)NC5CCCN(C)C5)cc4)cc23)ccc2c1cnn2CC(C)(C)O (racemic) [Ex 761, 4-((5-(1-(2-hydroxy-2-methylpropyl)-4-methyl-1H-indazol-5-yl)-2,6-naphthyridin-3-yl)amino)-N-(1-methylpiperidin-3-yl)benzenesulfonamide] was tested. Which IC50 [1, 13] did it give?
Answer: 25 to 250 nM

Question: And the IC50 [2, 14]?
Answer: 25 to 250 nM

Question: And the IC50 [3, 15]?
Answer: > 250 nM

Question: And the IC50 [4, 16]?
Answer: < 25 nM

Question: What does the source list for Cc1c(-c2nccc3cnc(Nc4ccc(S(=O)(=O)NC5CCOC5)cc4)cc23)ccc2c1cnn2CC(C)(C)O (racemic) [Ex 770, 4-((5-(1-(2-hydroxy-2-methylpropyl)-4-methyl-1H-indazol-5-yl)-2,6-naphthyridin-3-yl)amino)-N-(tetrahydrofuran-3-yl)benzenesulfonamide]?
Answer: IC50 [1, 13]: 25 to 250 nM; IC50 [2, 14]: 25 to 250 nM; IC50 [3, 15]: > 250 nM; IC50 [4, 16]: < 25 nM

Question: How did the IC50 [1, 13] turn out when Cc1c(-c2nccc3cnc(Nc4ccc(S(=O)(=O)NC5CCN(C)C5)cc4)cc23)ccc2c1cnn2CC(C)(C)O (racemic) [Ex 771, 4-((5-(1-(2-hydroxy-2-methylpropyl)-4-methyl-1H-indazol-5-yl)-2,6-naphthyridin-3-yl)amino)-N-(1-methylpyrrolidin-3-yl)benzenesulfonamide] was run?
Answer: 25 to 250 nM

Question: And the IC50 [2, 14]?
Answer: 25 to 250 nM

Question: And the IC50 [3, 15]?
Answer: > 250 nM

Question: What about the IC50 [4, 16] of the same compound?
Answer: < 25 nM

Question: How did the IC50 [1, 13] turn out when Cc1c(-c2nccc3cnc(Nc4ccc(S(=O)(=O)NC5CCNC5)cc4)cc23)ccc2c1cnn2CC(C)(C)O (racemic) [Ex 791, 4-((5-(1-(2-hydroxy-2-methylpropyl)-4-methyl-1H-indazol-5-yl)-2,6-naphthyridin-3-yl)amino)-N-(pyrrolidin-3-yl)benzenesulfonamide] was run?
Answer: 25 to 250 nM

Question: And the IC50 ([2]; <25 nM, read-out: CDK4/CCND IC50, column <25 nM)?
Answer: < 25 nM

Question: What about the IC50 ([3]; 25-250 nM, read-out: CDK1/CCNB IC50, 25-250 nM) of the same compound?
Answer: 25 to 250 nM

Question: What about the IC50 [4, 16] of the same compound?
Answer: < 25 nM

Question: Which IC50 [1, 13] does the source give for Cc1c(-c2nccc3cnc(Nc4ccc(S(=O)(=O)NC5CCCNC5)cc4)cc23)ccc2c1cnn2CC(C)(C)O (racemic) [Ex 792, 4-((5-(1-(2-hydroxy-2-methylpropyl)-4-methyl-1H-indazol-5-yl)-2,6-naphthyridin-3-yl)amino)-N-(piperidin-3-yl)benzenesulfonamide] here?
Answer: 25 to 250 nM

Question: What about the IC50 [2, 14] of the same compound?
Answer: 25 to 250 nM

Question: What about the IC50 [3, 15] of the same compound?
Answer: > 250 nM

Question: And the IC50 [4, 16]?
Answer: < 25 nM

Question: Which results are given for COc1ccc(C(=O)N2CCC(Nc3cc4c(-c5ccc6c(cnn6CC(C)(C)O)c5C)nccc4cn3)C2)cc1 (racemic) [Ex 884, (3-((5-(1-(2-hydroxy-2-methylpropyl)-4-methyl-1H-indazol-5-yl)-2,6-naphthyridin-3-yl)amino)pyrrolidin-1-yl)(4-methoxyphenyl)methanone]?
Answer: IC50 [1, 17]: > 250 nM; IC50 [2, 18]: > 250 nM; IC50 [3, 15]: > 250 nM; IC50 [4, 16]: < 25 nM

Question: With Cc1c(-c2nccc3cnc(NC4CCN(C(=O)c5ccccc5)C4)cc23)ccc2c1cnn2CC(C)(C)O (racemic) [Ex 885, (3-((5-(1-(2-hydroxy-2-methylpropyl)-4-methyl-1H-indazol-5-yl)-2,6-naphthyridin-3-yl)amino)pyrrolidin-1-yl)(phenyl)methanone] as the compound, how does the IC50 [1, 17] read?
Answer: > 250 nM

Question: What about the IC50 [2, 18] of the same compound?
Answer: > 250 nM

Question: What about the IC50 [3, 15] of the same compound?
Answer: > 250 nM

Question: What about the IC50 [4, 16] of the same compound?
Answer: < 25 nM

Question: Cc1c(-c2nccc3cnc(NC4CCN(C(=O)c5ccc(Cl)cc5)C4)cc23)ccc2c1cnn2CC(C)(C)O (racemic) [Ex 903, (4-chlorophenyl)(3-((5-(1-(2-hydroxy-2-methylpropyl)-4-methyl-1H-indazol-5-yl)-2,6-naphthyridin-3-yl)amino)pyrrolidin-1-yl)methanone] was tested. Which IC50 [1, 17] did it give?
Answer: > 250 nM

Question: And the IC50 [2, 18]?
Answer: > 250 nM

Question: And the IC50 [3, 15]?
Answer: > 250 nM

Question: And the IC50 [4, 16]?
Answer: < 25 nM

Question: Cc1c(-c2nccc3cnc(NC4CCN(C(=O)c5cccnc5)C4)cc23)ccc2c1cnn2CC(C)(C)O (racemic) [Ex 904, (3-((5-(1-(2-hydroxy-2-methylpropyl)-4-methyl-1H-indazol-5-yl)-2,6-naphthyridin-3-yl)amino)pyrrolidin-1-yl)(pyridin-3-yl)methanone] was tested. Which IC50 [1, 17] did it give?
Answer: > 250 nM

Question: And the IC50 [2, 18]?
Answer: > 250 nM

Question: And the IC50 [3, 15]?
Answer: > 250 nM

Question: And the IC50 ([4]; 25-250 nM, read-out: CDK2/CCNE IC50, 25-250 nM)?
Answer: 25 to 250 nM
